The source of these data is PMC13492380, “Dissecting Structural and Functional Determinants of Microtubules Stabilization through Guided Chemical Modulation” (Journal of Medicinal Chemistry, 2026).

This assay deals with Tau-mCherry (Tau 441 isoform) on stabilized MTs from porcine brain tubulin. In words: Tau-mCherry binding to stabilized MTs (TIRF). The format is biochemical. Conditions: for initial Tau envelope coverage / Tau envelope growth velocity: 10 nM Tau-mCherry; for initial Tau envelope coverage: MTs polymerized in the presence of drug; for Tau-mCherry coating of stabilized MTs / Tau envelope coverage of MT length: 40 nM Tau-mCherry. The source says: Previous studies in vitro have shown that Tau molecules strongly prefer compacted GDP lattices. Tau binds cooperatively to MT surfaces, resulting in a cohesive layer depending on tau-tau interactions, termed MT envelope, which selectively regulates access to MT lattices, and shields MTs from severing enzymes. − On expanded PTX-MTs, Tau envelope also forms and the lattice can get locally compacted. To further explore how MT lattice structure influences Tau binding, we employed an in vitro reconstitution assay. We deposited stabilized MTs in a flow chamber, and visualized them via interference reflection microscopy (Figure C). We then added 10 nM Tau-mCherry (labeled purified Tau 441 isoform at the C-terminus with mCherry) and monitored its association with MTs using time-lapse TIRF microscopy. After 4 min, we increased Tau concentration to 40 nM, and continued imaging for an additional 4 min. We measured fluorescence intensities along MTs to quantify Tau binding (Movies S16–S27). […] PTXpost-MTs also supported […] faster envelope growth (0.20 ± 0.02 μm/s versus 0.054 ± 0.006 μm/s for PTXpre-MTs, Figure H).
Total Internal Reflection Fluorescence microscopy experiments were performed on an inverted widefield microscope Nikon-Ti2 E, equipped with a motorized XY-stage, a perfect focus system, Apo TIRF 60× oil NA 1.49 objective and PRIME BSY (Teledyne Photometrics) camera. MTs were visualized using Interference Reflection microscopy (IRM) and fluorescently labeled proteins were visualized sequentially by switching between microscope filter cubes for GFP and mCherry channels. The microscopes were controlled using NIS Elements software (Nikon). All experiments were conducted at RT.
Microscopy chambers were prepared from two sandwiched silanized glass coverslips (22 × 22 mm^2 and 18 × 18 mm^2) attached through parafilm strips (heated for 15–20 s at 60 °C and gently pressed together) to form ∼2.5 mm wide parallel flow channels. Prior to the chamber assembly, the coverslips were washed in 3 M KOH, cleaned using Zepto plasma cleaner (Diener electronic) and silanized with hexamethyldisilazane. Flow channels were first incubated with 40 μgml^–1 antibiotin antibodies (Sigma, B3640) in PBS for 10 min, followed by incubation with 1% Pluronic F127 (Sigma-Aldrich, P2443) in PBS for at least 1 h. F127 was washed with BRB80 (80 mM PIPES, 1 mM EGTA, 1 mM MgCl2, pH 6.9).
Porcine brain tubulin was isolated using the high-molarity PIPES procedure then mixed with Biotin labeled tubulin (Cytoskeleton Inc., T333P) in 1:49 ratio. All MTs were polymerized using 2% biotin-labeled tubulin. […] Polymerized MTs were centrifuged for 30 min at 18,000g in a Microfuge 18 Centrifuge (Beckman Coulter’s). […] Drug stabilized preassembly MTs (polymerized in the presence of drugs and GTP, stored and imaged in presence of drug) were polymerized from 4 mg mL^–1 biotinylated tubulin for 30 min at 37 °C in BRB80 supplemented with 4 mM MgCl2, 40 μM drug of interest in 5% DMSO, and 1 mM GTP. Polymerized MTs were centrifuged for 30 min at 18,000g in a Microfuge 18 Centrifuge (Beckman Coulter’s). […] GMPCPP stabilized MTs (GMPCPP polymerized) were assembled from 4 mg mL^–1 biotinylated tubulin for 2 h at 37 °C in BRB80 supplemented with 1 mM MgCl2 and 1 mM GMPCPP (Jena Bioscience, NU-405). Polymerized MTs were centrifuged for 30 min at 18,000g in a Microfuge 18 Centrifuge (Beckman Coulter’s) and pellets were resuspended and kept in BRB80.
Stabilized MTs were flushed into the channel and incubated for 15–30 s to allow for surface attachment. Unbound MTs were removed by washing with BRB80 supplemented with 10 μM of drug. Prior the experiment, the solution was exchanged by motility buffer, MB (BRB80 containing 10 mM DTT, 20 mM D-glucose, 0.1% Tween-20, 0.5 mg/mL casein, 1 mM Mg-ATP, 0.02 mg/mL catalase, 0.22 mg/mL glucose oxidase, 10 μM drug). Subsequently, a solution containing either 1.08 nM Kif5b-EGFP or 10/40 nM mCherry-Tau in MB was introduced into the chamber. […]

[1] abbreviates: MTs polymerized in the presence of drug (preassembly).
[2] abbreviates: MTs stabilized with PTX after polymerization (PTXpost).

As for `COc1ccc2c(c1)CC(NC(=O)CCCCCCCC(=O)OC1CC3OCC3(OC(C)=O)C3C(OC(=O)c4ccccc4)C4(O)CC(OC(=O)C(O)C(NC(=O)c5ccccc5)c5ccccc5)C(C)=C(C(OC(C)=O)C(=O)C13C)C4(C)C)CC2` [1b, 7-O-((S)-9″-(7‴-Methoxy-1‴,2‴,3‴,4‴-tetrahydronaphthalen-2‴-yl)amino) −9″-oxononanoyl) Paclitaxel], the “initial Tau envelope coverage” value stood at 20% and the “Tau-mCherry coating of stabilized MTs” value is “fully coated”. In addition, the “Tau envelope growth velocity” value under setting [1] is 0.46 ± 0.05 μm/s.

Turning to `CC(=O)O[C@H]1C(=O)[C@@]2(C)[C@H]([C@H](OC(=O)c3ccccc3)[C@]3(O)C[C@H](OC(=O)[C@H](O)[C@@H](NC(=O)c4ccccc4)c4ccccc4)C(C)=C1C3(C)C)[C@]1(OC(C)=O)CO[C@@H]1C[C@@H]2O` [PTX, Paclitaxel], the “Tau envelope growth velocity” value is, setting by setting: under setting [1], 0.054 ± 0.006 μm/s; under setting [2], 0.20 ± 0.02 μm/s. In addition, the “Tau envelope coverage of MT length” value is listed as 30% (MTs assembled in the presence of PTX (PTXpre)) and “up to 60%” under setting [2].

Regarding `CC(=O)OC1C(=O)C2(C)C(OC(=O)CCCCC(=O)OC3CCc4ccccc43)CC3OCC3(OC(C)=O)C2C(OC(=O)c2ccccc2)C2(O)CC(OC(=O)C(O)C(NC(=O)c3ccccc3)c3ccccc3)C(C)=C1C2(C)C` (stereo not shown) [1a, 7-O-(6″-O-(2‴,3‴-Dihydroinden-1‴-yl)hexanedioyl) Paclitaxel], the “initial Tau envelope coverage” value is 40% and the “Tau-mCherry coating of stabilized MTs” value is “fully coated”. For the same molecule, the “Tau envelope growth velocity” value under setting [1] is given as 1.5 ± 0.1 μm/s.

Consider `CC(=O)O[C@H]1C(=O)[C@]2(C)[C@@H](OC(=O)[C@H](C)NC(=O)c3ccc(-c4c5cc(F)c(=O)cc-5oc5cc(O)c(F)cc45)c(C(=O)O)c3)C[C@H]3OC[C@@]3(OC(C)=O)[C@H]2[C@H](OC(=O)c2ccccc2)[C@]2(O)C[C@H](OC(=O)[C@H](O)[C@@H](NC(=O)c3ccccc3)c3ccccc3)C(C)=C1C2(C)C` [FTX2, Flutax2], for which the “initial Tau envelope coverage” value was determined as 60% and the “Tau-mCherry coating of stabilized MTs” value is listed as “fully coated”. The “Tau envelope growth velocity” value under setting [1] stood at 1.37 ± 0.09 μm/s.
